# Results from PMC7481357, “N-terminal Myristoylation Enhanced the Antimicrobial Activity of Antimicrobial Peptide PMAP-36PW” (Frontiers in Cellular and Infection Microbiology, 2020).
# Entries after “also recorded” stand apart in the source; their conditions may differ.
# Assays:
# P. aeruginosa GIM 1.551 [1] = experiment: Wound infection model; type: in vivo, BALB/c mice; settings: 20 μL, 1 μg/μL, once a day for 7 days
# Experimental: Sixty mice with ten mice in each group were used in the experiment. Infection and treatment were performed as previously described (Hong et al., [2017]). The mouse dorsal region with a diameter of 3.0 cm was treated with hair pusher, and a full-thickness 2.0 cm diameter wound was created by excising the skin and infected by direct seeding with P. aeruginosa GIM 1.551 (1 × 10^8 CFU/mL, 50 μL). The wound was then covered with sterile gauze to prevent cross contamination. Treatment was initiated at 24 h after bacterial inoculation. The mice with no infection and treatment was used as a blank control, those provided with PBS (20 μL) as the negative control group, those administered with ampicillin sodium (20 μL, 1 μg/μL) as the positive control group, and the remaining were those treated with the three peptides (20 μL, 1 μg/μL) once a day for 7 days as the treatment groups. The mice were sacrificed after the 7 day treatment. Changes in the wound were observed, and the infected sections of skin were aseptically contained, homogenized, and serially diluted. Bacterial CFU counts were obtained.
# Figure 11 Treatment value of wound by Myr-36PW in vivo. A 2 cm wound was cut with a knife and directly injected with P. aeruginosa GIM 1.551. (A) Wound changes of mice after 7 days treatment. (B) Bacterial CFU in the wound area treated for 7 days under different experimental conditions. AS is ampicillin sodium. Data represent the mean Log (CFU) ± SD of five individual experiments. *P < 0.05 and **P < 0.01, compared with PBS. ^#P < 0.05, compared with PMAP-36PW.
# S. typhimurium SL 1344 [2] = type: cell-based, Salmonella typhimurium; settings: S. typhimurium SL 1344; * indicates resistant (CLSI, 2020)
# Experimental: (§1) The MICs of Myr-36PW in vitro were measured through microdilution in accordance with the Clinical and Laboratory Standards Institute (CLSI, [2020]). The bacterial cells were cultured for 12 h at 37°C in the appropriate medium and then diluted to 1 × 10^6 CFU/mL. Equal volumes (100 μL) of bacterial cell suspension and two-fold serially diluted different concentrations peptides (0.0039–256 μg/mL) were added to each well of the sterile 96-well plate. The samples were incubated for 18 h at 37°C. After incubation, the MICs of the peptides were determined by evaluating the growth based on the OD600 of the cultures.
# S. aureus ATCC 25923 [3] = type: cell-based, Staphylococcus aureus; settings: S. aureus ATCC 25923; * indicates resistant (CLSI, 2020)
# Experimental: as §1
# [4] = tested on: L. monocytogenes CICC 21634; type: cell-based, Listeria monocytogenes; settings: L. monocytogenes CICC 21634; * indicates resistant (CLSI, 2020)
# Experimental: as §1
# P. aeruginosa GIM 1.551 [5] = experiment: Pneumonia (lung infection) model; type: in vivo, BALB/c mice; settings: intranasal 40 μL, 1 μg/μL, once a day for 3 days
# Experimental: A pneumonia model in vivo was established as previously reported, with minor modification (Cortés et al., [2002]; Aoki et al., [2009]; Shi et al., [2018]). A total of 120 mice were randomly divided into two experimental models, one was intranasal inoculation of S. aureus ATCC 25923 (8.3 × 10^9 CFU/mL, 50 μL), and the other was intranasal inoculation of P. aeruginosa GIM 1.551 (4.5 × 10^10 CFU/mL, 50 μL). In the S. aureus ATCC 25923 model, 60 mice were divided into the following six groups of 10 mice each: no infection and treatment was used as a blank control, those with intranasal administration of PBS (40 μL) as the negative control group, those administered with benzylpenicillin potassium (40 μL, 1 μg/μL) as the positive control group, and the remaining three corresponded to Myr-36PW (40 μL, 1 μg/μL), PMAP-36PW (40 μL, 1 μg/μL), and PMAP-36 groups (40 μL, 1 μg/μL). The procedure for P. aeruginosa GIM 1.551 model is the same as for S. aureus ATCC 25923 model, except for the use of ampicillin sodium as the positive control. After 4 h post-inoculation, treatment was initiated, once a day for 3 days. The mice were sacrificed 24 h after the treatment. Changes in the appearance of lung tissues were observed, and lung tissues were removed aseptically from the mice. Half of the removed lung tissues were gently fixed in buffered formaldehyde solution for histopathological assessment by hematoxylin and eosin (H&E) staining. Pathological changes were scored to provide individual therapeutic status as described previously (Lei et al., [2018]). The remaining lung tissues were added with 1 mL of PBS, homogenized, and serially diluted. Bacterial CFU counts were determined.
# Figure 8 Therapeutic effect for pneumonia by Myr-36PW in vivo. Mice were injected with S. aureus ATCC 25923 or P. aeruginosa GIM 1.551 to form pneumonia, and lungs (n = 5) in each group were collected on day 4 after intranasal bacterial inoculation. (A) Morphological changes of lung tissues. (B) Representative histopathological images of processed lung section with hematoxylin and eosin (H&E) staining. Images are presented at a magnification of 20×. a: inflammatory cell infiltration. b: the alveolar wall is thickened. c: alveolar wall congestion or alveolar hemorrhage. (C,D) Pathological scores of the lung sections. Scoring standard: 1 indicated no pathology, 2 indicated local pulmonary congestion and inflammatory cell infiltration, 3 indicated pulmonary congestion and a large number of inflammatory cell infiltration, affecting <20% of the section, 4 indicated pulmonary congestion and a large number of inflammatory cell infiltration, affecting 20–50% of the section, and 5 indicated pulmonary congestion and a large number of inflammatory cell infiltration, affecting >50% of the section. (E,F) Bacterial CFU in lung homogenate. BP is benzylpenicillin potassium, AS is ampicillin sodium. Data represent the mean ± SD of five individual experiments.
# P. aeruginosa GIM 1.551 [6] = experiment: Subcutaneous abscess model; type: in vivo, BALB/c mice; settings: injected 20 μL, 1 μg/μL, once a day for 3 days
# Experimental: A subcutaneous abscess model in vivo was established as previously reported (Zhao et al., [2019]). The mouse dorsal region with 3.0 cm diameter was treated with hair pusher. A total of 120 mice were randomly divided into two experimental models, one was challenged with S. aureus ATCC 25923 (2.5 × 10^8 CFU/mL, 60 μL), and the other was challenged with P. aeruginosa GIM 1.551 (3.0 × 10^8 CFU/mL, 60 μL). In the S. aureus ATCC 25923 model, 60 mice were divided into six groups of 10 members. The mice with no infection and treatment was used as a blank control, those directly injected with PBS (20 μL) as the negative control group, those injected with benzylpenicillin potassium (20 μL, 1 μg/μL) as the positive control group, and the remaining three groups as the treatment groups injected with Myr-36PW (20 μL, 1 μg/μL), PMAP-36PW (20 μL, 1 μg/μL), and PMAP-36 (20 μL, 1 μg/μL). The procedure in P. aeruginosa GIM 1.551 model is the same as that in S. aureus ATCC 25923 model, except for the use of ampicillin sodium as a positive control. Treatment once a day for 3 days was initiated when the mice developed prominent pustules on their backs. A day after the treatment, the size of the abscess was observed, and its tissues were excised, homogenized, and serially diluted. Bacteria CFU counts were calculated.
# Figure 10 Treatment efficacy of subcutaneous abscess by Myr-36PW in vivo. Mice were injected with S. aureus ATCC 25923 or P. aeruginosa GIM 1.551 to develop a subcutaneous abscess before treatment. (A) Changes in the abscess area of mice after 3 days treatment. (B,C) Quantitative analysis of bacterial CFU in abscess area that received 3 days treatment under various experimental conditions. The number of CFU in each treatment group was normalized by using the CFU of the experimental group divided by the CFU of the PBS group (100%). BP is benzylpenicillin potassium, AS is ampicillin sodium. Data represent the mean ± SD of five individual experiments. *P < 0.05 and **P < 0.01, compared with PBS. ^#P < 0.05 and ^##P < 0.01, compared with PMAP-36PW.
# P. aeruginosa GIM 1.551 [7] = type: cell-based, Pseudomonas aeruginosa; settings: P. aeruginosa GIM 1.551; * indicates resistant (CLSI, 2020)
# Experimental: as §1
# S. aureus ATCC 25923 [8] = experiment: Inhibition zone assay (disk diffusion); type: cell-based, Staphylococcus aureus; design: key: +, means the peptide has antibacterial activity; settings: disk 10 μg peptide, 18 h at 37°C, * P < 0.05, ** P < 0.01 vs PMAP-36PW
# Experimental: (§2) The inhibition zone assay was performed through the disk diffusion to evaluate the antimicrobial activity of Myr-36PW in vitro (Dunne et al., [2017]). The four above-mentioned bacterial strains were used as experimental strains, with L. monocytogenes CICC 21634 cultured in BHI medium, and P. aeruginosa GIM 1.551 cultured in TSB medium. The bacterial cells were cultured for 12 h at 37°C in the appropriate medium, and the bacterial cell suspension was spread on LB agar. The disks containing 10 μg of peptides (1 μg/μL) were attached to the solid medium and incubated at 37°C for 18 h. Finally the diameter of the inhibition zone was measured.
# S. typhimurium SL 1344 [9] = experiment: Inhibition zone assay (disk diffusion); type: cell-based, Salmonella typhimurium; design: key: +, means the peptide has antibacterial activity; settings: disk 10 μg peptide, 18 h at 37°C, * P < 0.05, ** P < 0.01 vs PMAP-36PW
# Experimental: as §2
# P. aeruginosa GIM 1.551 [10] = experiment: Inhibition zone assay (disk diffusion); type: cell-based, Pseudomonas aeruginosa; design: key: +, means the peptide has antibacterial activity; settings: disk 10 μg peptide, 18 h at 37°C, * P < 0.05, ** P < 0.01 vs PMAP-36PW
# Experimental: as §2
# [11] = tested on: L. monocytogenes CICC 21634; experiment: Inhibition zone assay (disk diffusion); type: cell-based, Listeria monocytogenes; design: key: +, means the peptide has antibacterial activity; settings: disk 10 μg peptide, 18 h at 37°C, * P < 0.05, ** P < 0.01 vs PMAP-36PW
# Experimental: as §2
Compound,Wound size (P. aeruginosa GIM 1.551 [1]),"Bacterial CFU in the wound area (P. aeruginosa GIM 1.551 [1]; vs PBS group: PMAP-36PW P < 0.05, Myr-36PW and ampicillin sodium P < 0.01, n = 5)",MICs of different classes of antibiotics (S. typhimurium SL 1344 [2]) [µg/mL],MICs of different classes of antibiotics (S. aureus ATCC 25923 [3]) [µg/mL],MICs of different classes of antibiotics [4],Lung histopathology (H&E) (P. aeruginosa GIM 1.551 [5]),Bacterial CFU in lung homogenate (P. aeruginosa GIM 1.551 [5]; n = 5),Pathological scores of the lung sections (P. aeruginosa GIM 1.551 [5]; n = 5),Abscess area (P. aeruginosa GIM 1.551 [6]),"Bacterial CFU in abscess area (P. aeruginosa GIM 1.551 [6]; vs PMAP-36PW: Myr-36PW P < 0.05, ampicillin sodium P < 0.01, n = 5)",MICs of different classes of antibiotics (P. aeruginosa GIM 1.551 [7]),In vitro antibacterial activity (disk diffusion) (S. aureus ATCC 25923 [8]),In vitro antibacterial activity (disk diffusion) (S. typhimurium SL 1344 [9]),In vitro antibacterial activity (disk diffusion) (P. aeruginosa GIM 1.551 [10]),In vitro antibacterial activity (disk diffusion) [11]
CC1(C)S[C@@H]2[C@H](NC(=O)[C@H](N)c3ccccc3)C(=O)N2[C@H]1C(=O)O [Ampicillin sodium],significantly reduced,significantly reduced,16,0.5,64 µg/mL,"a complete alveolar structure, reduced blood stasis, and large reduction in inflammatory cells",decreased the P. aeruginosa GIM 1.551 CFU level compared with the PMAP-36PW group (P < 0.05),lower scores than PMAP-36PW group (P < 0.05),significantly reduced the abscess area and effectively suppressed its growth,significant difference compared with that of PBS group (P < 0.01); also recorded: lower than that of PMAP-36PW group,32 µg/mL,–,–,–,–
"CO/N=C(\C(=O)N[C@@H]1C(=O)N2C(C(=O)[O-])=C(CSC(=O)c3ccco3)CS[C@H]12)c1csc(N)n1.[Na+] [Ceftiofur Sodium, Ceftiofur sodium]",–,–,4,<0.25,32* μg/mL,–,–,–,–,–,64* μg/mL,+,+,+,+
